Bridge positions count the residues as written; N and C are the ends. Peptide text beside a SMILES is read from it.
The molecules below were run against human IgG (assay: Surface plasmon resonance (SPR) analysis of synthetic peptide binding to human IgG). Conditions: SPR, synthetic peptide binding to human IgG; read-out: Kd.
Experimental: In order to narrow down the amino acid region to be studied, a peptide in which one amino acid was deleted from each end of GFc-C35 (GFc-C35-2/16) and a peptide in which two amino acids were deleted from each end of CFc-C35 (GFc-C35-3/15) were synthesized. Among these peptides, based on the GFc-C35-3/15 synthetic peptide, the effect of the introduction of amino acid mutations on affinity was evaluated. That is, the contribution of each amino acid substitution to affinity was evaluated by synthesizing peptides substituted with frequently or occasionally observed amino acids obtained from the phage libraries and subjecting the resulting synthetic peptides to binding analysis.
Based on the synthetic peptide C35A, peptides substituted with amino acids observed at high frequency in the aforementioned phage libraries were synthesized by introducing amino acid mutations, and in a similar manner to the above, their binding to human IgG was analyzed by surface plasmon resonance (SPR) analysis to evaluate the contribution of each amino acid substitution to affinity.

Kd | SMILES
28.5 nM | CC(C)C[C@@H]1NC(=O)[C@H](CCC(=O)O)NC(=O)CNC(=O)[C@H](CCCNC(=N)N)NC(=O)[C@H](Cc2c[nH]cn2)NC(=O)[C@H](Cc2ccc(O)cc2)NC(=O)[C@H](C)NC(=O)[C@@H](NC(=O)[C@H](CO)NC(=O)[C@@H]2CCCN2C(=O)CN)CSSC[C@@H](C(=O)N[C@H](C(=O)N[C@@H](Cc2ccccc2)C(=O)N[C@@H](Cc2c[nH]cn2)C(N)=O)[C@@H](C)O)NC(=O)[C@H](Cc2c[nH]c3ccccc23)NC(=O)[C@H](C(C)C)NC1=O [C35A (D3S), GPSCAYHRGELVWCTFH] (H-GPSCAYHRGELVWCTFH-NH2; disulfide 4-14)
11.4 nM | CC(C)C[C@@H]1NC(=O)[C@H](CCC(=O)O)NC(=O)CNC(=O)[C@H](CCCNC(=N)N)NC(=O)[C@H](Cc2c[nH]cn2)NC(=O)[C@H](Cc2ccc(O)cc2)NC(=O)[C@H](C)NC(=O)[C@@H](NC(=O)[C@H](CC(=O)O)NC(=O)[C@@H]2CCCN2C(=O)CN)CSSC[C@@H](C(=O)N[C@H](C(=O)N[C@@H](Cc2c[nH]cn2)C(=O)N[C@@H](Cc2c[nH]cn2)C(N)=O)[C@@H](C)O)NC(=O)[C@H](Cc2c[nH]c3ccccc23)NC(=O)[C@H](C(C)C)NC1=O [C35A (F16H), GPDCAYHRGELVWCTHH] (H-GPDCAYHRGELVWCTHH-NH2; disulfide 4-14)
9.3 nM | CC(C)C[C@@H]1NC(=O)[C@H](CCC(=O)O)NC(=O)CNC(=O)[C@H](CCCNC(=N)N)NC(=O)[C@H](Cc2c[nH]cn2)NC(=O)[C@H](Cc2ccc(O)cc2)NC(=O)[C@H](C)NC(=O)[C@@H](NC(=O)[C@H](CC(=O)O)NC(=O)[C@@H]2CCCN2C(=O)[C@@H](N)CO)CSSC[C@@H](C(=O)N[C@H](C(=O)N[C@@H](Cc2ccccc2)C(=O)N[C@@H](Cc2c[nH]cn2)C(N)=O)[C@@H](C)O)NC(=O)[C@H](Cc2c[nH]c3ccccc23)NC(=O)[C@H](C(C)C)NC1=O [C35A (G1S), SPDCAYHRGELVWCTFH] (H-SPDCAYHRGELVWCTFH-NH2; disulfide 4-14)
12 nM | CC(C)C[C@@H]1NC(=O)[C@H](CCC(=O)O)NC(=O)CNC(=O)[C@H](CCCNC(=N)N)NC(=O)[C@H](Cc2c[nH]cn2)NC(=O)[C@H](Cc2ccc(O)cc2)NC(=O)[C@H](C)NC(=O)[C@@H](NC(=O)[C@H](CC(=O)O)NC(=O)[C@@H]2CCCN2C(=O)CN)CSSC[C@@H](C(=O)N[C@H](C(=O)N[C@@H](Cc2ccccc2)C(=O)N[C@@H](Cc2ccc(O)cc2)C(N)=O)[C@@H](C)O)NC(=O)[C@H](Cc2c[nH]c3ccccc23)NC(=O)[C@H](C(C)C)NC1=O [C35A (H17Y), GPDCAYHRGELVWCTFY] (H-GPDCAYHRGELVWCTFY-NH2; disulfide 4-14)
13.3 nM | CC(C)C[C@@H]1NC(=O)[C@H](CCC(=O)O)NC(=O)CNC(=O)[C@H](CCCNC(=N)N)NC(=O)[C@H](Cc2c[nH]cn2)NC(=O)[C@H](Cc2ccc(O)cc2)NC(=O)[C@H](C)NC(=O)[C@@H](NC(=O)[C@H](CC(=O)O)NC(=O)[C@H](CC(=O)O)NC(=O)CN)CSSC[C@@H](C(=O)N[C@H](C(=O)N[C@@H](Cc2ccccc2)C(=O)N[C@@H](Cc2c[nH]cn2)C(N)=O)[C@@H](C)O)NC(=O)[C@H](Cc2c[nH]c3ccccc23)NC(=O)[C@H](C(C)C)NC1=O [C35A (P2D), GDDCAYHRGELVWCTFH] (H-GDDCAYHRGELVWCTFH-NH2; disulfide 4-14)
14.4 nM | CC(C)C[C@@H]1NC(=O)[C@H](CCC(=O)O)NC(=O)CNC(=O)[C@H](CCCNC(=N)N)NC(=O)[C@H](Cc2c[nH]cn2)NC(=O)[C@H](Cc2ccc(O)cc2)NC(=O)[C@H](C)NC(=O)[C@@H](NC(=O)[C@H](CC(=O)O)NC(=O)[C@@H]2CCCN2C(=O)CN)CSSC[C@@H](C(=O)N[C@@H](CO)C(=O)N[C@@H](Cc2ccccc2)C(=O)N[C@@H](Cc2c[nH]cn2)C(N)=O)NC(=O)[C@H](Cc2c[nH]c3ccccc23)NC(=O)[C@H](C(C)C)NC1=O [C35A (T15S), GPDCAYHRGELVWCSFH] (H-GPDCAYHRGELVWCSFH-NH2; disulfide 4-14)

The next lines start with the molecule.

SMILES | Kd
CC(C)C[C@@H]1NC(=O)[C@H](CCC(=O)O)NC(=O)CNC(=O)[C@H](CCCNC(=N)N)NC(=O)[C@H](Cc2c[nH]cn2)NC(=O)[C@H](Cc2ccc(O)cc2)NC(=O)[C@H](C)NC(=O)[C@@H](NC(=O)[C@H](CCCNC(=N)N)NC(=O)[C@@H]2CCCN2C(=O)CN)CSSC[C@@H](C(=O)N[C@@H](CO)C(=O)N[C@@H](Cc2ccccc2)C(=O)N[C@@H](Cc2c[nH]cn2)C(N)=O)NC(=O)[C@H](Cc2c[nH]c3ccccc23)NC(=O)[C@H](C(C)C)NC1=O [C35A (D3R, T15S), GPRCAYHRGELVWCSFH] (H-GPRCAYHRGELVWCSFH-NH2; disulfide 4-14) | 42 nM
CC(C)C[C@@H]1NC(=O)[C@H](CCC(=O)O)NC(=O)CNC(=O)[C@H](CCCNC(=N)N)NC(=O)[C@H](Cc2c[nH]cn2)NC(=O)[C@H](Cc2ccc(O)cc2)NC(=O)[C@H](C)NC(=O)[C@@H](NC(=O)[C@H](CC(=O)O)NC(=O)[C@@H]2CCCN2C(=O)[C@@H](N)CO)CSSC[C@@H](C(=O)N[C@H](C(=O)N[C@@H](Cc2ccccc2)C(=O)N[C@@H](Cc2ccc(O)cc2)C(N)=O)[C@@H](C)O)NC(=O)[C@H](Cc2c[nH]c3ccccc23)NC(=O)[C@H](C(C)C)NC1=O [C35A (G1S, H17Y), SPDCAYHRGELVWCTFY] (H-SPDCAYHRGELVWCTFY-NH2; disulfide 4-14) | 11 nM
CC(C)C[C@@H]1NC(=O)[C@H](CCC(=O)O)NC(=O)CNC(=O)[C@H](CCCNC(=N)N)NC(=O)[C@H](Cc2c[nH]cn2)NC(=O)[C@H](Cc2ccc(O)cc2)NC(=O)[C@H](C)NC(=O)[C@@H](NC(=O)[C@H](CC(=O)O)NC(=O)[C@H](CC(=O)O)NC(=O)[C@@H](N)CO)CSSC[C@@H](C(=O)N[C@H](C(=O)N[C@@H](Cc2ccccc2)C(=O)N[C@@H](Cc2ccc(O)cc2)C(N)=O)[C@@H](C)O)NC(=O)[C@H](Cc2c[nH]c3ccccc23)NC(=O)[C@H](C(C)C)NC1=O [C35A (P2D, H17Y), SDDCAYHRGELVWCTFY] (H-SDDCAYHRGELVWCTFY-NH2; disulfide 4-14) | 13 nM
CC(C)C[C@@H]1NC(=O)[C@H](CC(N)=O)NC(=O)CNC(=O)[C@H](CC(N)=O)NC(=O)[C@H]([C@@H](C)O)NC(=O)[C@H](Cc2ccc(O)cc2)NC(=O)[C@H]([C@@H](C)O)NC(=O)[C@@H](NC(=O)[C@H](CC(=O)O)NC(=O)[C@@H]2CCCN2C(=O)CN)CSSC[C@@H](C(=O)N[C@H](C(=O)N[C@@H](Cc2ccccc2)C(=O)N[C@@H](Cc2c[nH]cn2)C(N)=O)[C@@H](C)O)NC(=O)[C@H](Cc2c[nH]c3ccccc23)NC(=O)[C@H](C(C)C)NC1=O [GFc-C35, GPDCTYTNGNLVWCTFH] (H-GPDCTYTNGNLVWCTFH-NH2; disulfide 4-14) | 14000 nM
CC(C)C[C@@H]1NC(=O)[C@H](CC(N)=O)NC(=O)CNC(=O)[C@H](CC(N)=O)NC(=O)[C@H]([C@@H](C)O)NC(=O)[C@H](Cc2ccc(O)cc2)NC(=O)[C@H]([C@@H](C)O)NC(=O)[C@@H](NC(=O)[C@H](CC(=O)O)NC(=O)[C@@H]2CCCN2)CSSC[C@@H](C(=O)N[C@H](C(=O)N[C@@H](Cc2ccccc2)C(N)=O)[C@@H](C)O)NC(=O)[C@H](Cc2c[nH]c3ccccc23)NC(=O)[C@H](C(C)C)NC1=O [GFc-C35-2/16, PDCTYTNGNLVWCTF] (H-PDCTYTNGNLVWCTF-NH2; disulfide 3-13) | 25000 nM

— US9365619B2, “IgG-binding peptide and method for detecting and purifying IgG using same” (Otsuka Chemical Co., Ltd., priority 2011, dated 2016)
